Results taken from patent publication US20060241067A1, “Methods For inhibiting angiogenesis, cell migration, cell adhesion, and cell survival” (priority 2002, published 2006).

Tests used:
[1] = system: bFGF-stimulated angiogenesis in the mouse; experiment: Murine matrigel angiogenesis assay; type: in vivo, nude mice; conditions: bFGF matrigel with peptide, subcutaneous
[2] = system: chick chorioallantoic membrane (CAM); experiment: Chick chorioallantoic membrane (CAM) angiogenesis assay; type: in vivo, chicken; conditions: bFGF stimulated CAMs
[3] = system: Human umbilical vein endothelial cells (HUVEC); experiment: Endothelial cell migration assay (transwell) on ECM substrates; type: cell-based
Procedure: Human umbilical vein endothelial cells (HUVEC) were grown in Endothelial Growth Medium (containing 2% fetal bovine serum, bFGF and VEGF) (Clonetics, San Diego, Calif.). To render HUVECs quiescent for Rac and/or Rho assays, monolayers of endothelial cells were incubated for 18 hrs in Endothelial Basal Medium supplemented with 0.1% serum (Clonetics). Cell migration and adhesion assays on ECM substrates were performed as previously described in Kim et al. (S. Kim et al., Amer. J. Biol. Chem., 275:33920-33928 (2000); and S. Kim et al., Amer. J. Path., 156:1345-1362 (2000)).
Migration assays were performed essentially as described (Kim, et. al., 2000). […] HUVECS (25,000) were added to the upper chamber of inserts in migration buffer (Hepes buffered M199 medium containing 1% BSA, 2 mM MgCl2, 2 mM CaCl2 and 0.2 mM MnCl2) containing 25 μg/ml of various antibodies. In some experiments, 250 μM dibutyryl cAMP was placed in the upper and lower chambers of the transwell. Cells were allowed to migrate from the upper to the lower chamber for four hours at 37° C. The number of cells which had migrated were counted in three representative high power (200×) fields per insert. The data are presented as number of cells migrating+/−standard error of the mean. Migration assays were similarly performed on transfected cells. In this case, migrated transfected cells were identified by fluorescent microscopy and counted.

AVSEHQLLHS/D [PTHrP 1-10]
angiogenesis in matrigel plugs (fluorescence intensity of lectin) [1]: effective in inhibiting angiogenesis in a mouse model of angiogenesis | effectiveness at inhibiting angiogenesis relative to PTHrP 1-34 ([2]; 1 μM): slightly less effective | angiogenesis (blood vessel branch points, vessel density) ([2]; 1 μM peptide): effective in inhibiting angiogenesis in the CAM assay | endothelial cell migration on vitronectin ([3]; 1 μM peptide): similarly effective in inhibiting cell migration on vitronectin | maximum inhibition of cell migration ([3]; at a concentration of 10 μM): 50%
